The results in this text go back to patent publication US11236102B2, “Oxabicycloheptane prodrugs” (Lixte Biotechnology, Inc., priority 2015, dated 2022).

Several values for one entry are separate records, joined by “and”; a condition that tells them apart may be missing. Identical values can stand only once. Entries after “also recorded” stand apart in the source; their conditions may differ.

As usually defined, the AUC(0-t) is exposure summed from dosing to a finite time, without extrapolation to infinity. In general, Tmax refers to the time at which the peak concentration occurs. Broadly, the Cmax is the maximum level reached in the sampled fluid or tissue. As a reminder, the bioavailability is the share of a dose that reaches the circulation, judged against a reference dose that is usually intravenous. Usually AUC stands for the area under the concentration-time curve, a measure of exposure.

One data set in a line: in vivo. As to conditions: rat, 1.4 mg/kg. The procedure:
113 was dissolved in 4% NaHCO3 in saline for IV administration. The detailed procedure of dosing solution preparation was presented in Appendix I.
15 animals were placed on the study. The animals in IV arm were free access to food and water. For PO dose group, the animals were fasted overnight prior to dosing and the food was resumed 4 hours postdose.
The IV injection was conducted via foot dorsal vein. PO via oral gavage.
Blood collection: The animal is restrained manually. Approximately 200 μL of blood/time point is collected into sodium heparin tube via cardiac puncture for terminal bleeding (anesthetized under carbon dioxide). Blood sample will be put on ice and centrifuged to obtain plasma sample (2000 g, 5 min under 4° C.) within 10 minutes.
Liver collection: The animal will be euthanized with carbon dioxide inhalation. Open abdominal cavity with scissor to expose internal organs. Hold the carcass in an upright position and allow the organs to fall forward. Cut the connective tissues and remove the organs. Then the organs are rinsed with cold saline, dried on filtrate paper, placed into a screw-top tube and weighed, snap frozen by placing into dry-ice immediately.
Brain collection: Make a mid-line incision in the animals scalp and retract the skin. Using small bone cutters and rongeurs, remove the skull overlying the brain. Remove the brain using a spatula and rinse with cold saline, dried on filtrate paper, placed into a screw-top tube and weighed, snap frozen by placing into dry-ice immediately. […] Plasma, brain and liver samples were stored at approximately −80° C. until analysis. The backup samples will be discarded after three weeks after in-life completion unless requested. The unused dosing solutions will be discarded within three weeks after completion of the study.
Pharmacokinetic Analysis Software: The PK parameters were determined by non-compartmental model of non-compartmental analysis tool, Pharsight Phoenix WinNonlin® 6.2 software. […] Concentration data within 80%-120% of LLOQ was considered within normal instrumental variation and presented in the results. Terminal t1/2 calculation: Time points were automatic selected by “best fit” model for terminal half life estimation as the first option. Manual selection was applied when “best fit” could not well define the terminal phase. Results

A short description of data set [1]: Pharmacokinetic study of 157 (iv, po) in SD rats: 157 and endothal in plasma, liver, brain. Format: in vivo. The protocol:
The blood, liver and brain tissue samples were collected at predetermined times from rats. […] Compound were diluted shortly before use in 4% sodium bicarbonate for sterile injection (this is the standard pediatric solution of NaHCO3 with a pH of about 8.5).
Compound 153 was freshly prepared by diluting the drugs shortly before use in 4% sodium bicarbonate for sterile injection (this is the standard pediatric solution of NaHCO3 with a pH of about 8.5). The final concentrations of 153 solutions were 0.25 mg/mL. The 153 solutions were administered via iv or po route at dose volume of 5 ml/kg according to the latest body weight. Compound 157 was freshly prepared by diluting the drugs shortly before use in 4% sodium bicarbonate for sterile injection (this is the standard pediatric solution of NaHCO3 with a pH of about 8.5). […] The 157 solutions were administered via iv or po route at dose volume of 5 ml/kg according to the latest body weight.
Twelve (12) female SD rats per group were dosed by iv with 153 or 157. The rats were fasted overnight prior to dosing, with free access to water. Foods were withheld for 2 hours post-dose. Blood, liver and brain tissue samples in two animals each group were collected at each time point, within 10% of the scheduled time for each time point. Two extra animals were used for analytic method development.
Blood (>0.3 mL) were collected via aorta abdominalis in anaesthetic animals into tubes containing heparin at 15 min, 1, 2, 6, 10 and 24 hours after iv administration. Liver and brain tissues were collected immediately after animal death. The liver and brain tissues were excised and rinsed with cold saline to avoid blood residual. Upon collection, each sample was placed on ice and the blood samples were subsequently centrifuged (4° C., 11000 rpm, 5 min) to separate plasma.
The obtained plasma, liver and brain tissue samples were stored at −70° C. until LC-MS/MS analysis.
Two (2) female SD rats per group were dosed by po with 153 or 157. The rats were fasted overnight prior to dosing, with free access to water. Foods were withheld for 2 hours post-dose. Blood samples (>0.3 mL) were collected via aorta abdominalis in anaesthetic animals into tubes containing heparin at 30 min, 1, 2, 6, 10 and 24 hours after po administration.
To each sample, 30 μL IS-D (for blank samples, 20 μL acetonitrile:water (1:1) was added) and 300 ul acetonitrile was added. The sample mixture was vortexed for approximately 3 min. After centrifugation at 10000 rpm for 5 min at 4° C., 100 μL of the upper layer was transferred to a new tube and added 200 μL 0.4% formic acid in water (pH6.0). The mixture was vortexed for approximately 3 min before injected onto the LC/MS/MS system for analysis.
On the day of the assay, the frozen liver and brain samples were thawed unassisted at room temperature. An about 200 mg weighed sample of each thawed tissue was placed into a plastic tube with water (0.6 mL) to facilitate homogenization. Tissue processing was conducted using a homogenizer for approximately 1 min, […] homogenate was transferred into a fresh Eppendorf tube. To each tube, 50 μL IS-D was added and mixed. Then 500 ul acetonitrile was added and the sample mixture was vortexed for approximately 3 min. After centrifugation at 10000 rpm for 5 min at 4° C., 100 μL of the upper layer was transferred to a new tube and evaporate the supernatant to dryness at 35° C. Reconstitute the residue with 200 μL of 0.4% formic acid in water (pH 6.0), and vortex for 3 min, submit for LC-MS/MS analysis.
Frozen unknown plasma samples were completely thawed at room temperature and vortexed thoroughly. With a pipette, 50 μL of plasma was transferred into a 2.0 mL Eppendorf tube. 50 μL of 0.1N HCl and 800 μL ethyl acetate were added into each sample. The sample mixture was vortexed for approximately 3 min.

Data set [2] can be described thus: Whole blood stability (half-life) and metabolite formation. Format: in vitro ADME, rat, dog, monkey and human. As to conditions: for metabolism in whole blood metabolite study: rat, dog. The procedure: (§1) The stability (whole blood, liver S9, SGF, SIF, and PBS buffer) and MDCK-MDR1 monolayer permeability of LB100, LB-100 Carbonate and LB-100 POM were evaluated.
(§2) Samples were analyzed by LC-MS/MS using a SCIEX QTrap 5500 mass spectrometer coupled with an Agilent 1290 HPLC Infinity series, a CTC PAL chilled autosampler, all controlled by Analyst software. After separation on a C18 reverse phase HPLC column (Acquity UPLC HSS T3, 1.8, 2.1×50 mm) using an acetonitrile-water gradient system, peaks were analyzed by mass spectrometry (MS) using […] ionization in MRM mode.
Whole Blood Stability: Experimental Conditions Experimental Procedure: The stock solution was first diluted in acetonitrile at a concentration that is 100× of the desired final concentration. It was incubated in duplicate with whole blood at 37° C. At indicated times, an aliquot was removed from each experimental and control reaction and mixed with three volumes of ice-cold Stop Solution (methanol containing propranolol as internal standard). Stopped reactions were incubated at least ten minutes at −20° C. The samples were centrifuged to remove precipitated protein, and the supernatants were analyzed by LC-MS/MS to quantitate the remaining parent and the formation of metabolites.
Data were converted to % remaining by dividing by the time zero concentration value. Data were fit to a first-order decay model to determine half-life.

Data set [3] can be described thus: Liver S9 stability and metabolite formation. The class given is in vitro ADME, rat, dog, monkey and human. To be noted: presence and absence of NADPH, cross species. The protocol: as §1, §2
Experimental Procedure: Test agent is incubated in duplicate with liver S9 at 37° C. The reaction contains liver S9 protein in 100 mM potassium phosphate, 2 mM NADPH, 3 mM MgCl2, pH 7.4. A control is run for each test agent omitting NADPH to detect NADPH-free degradation. At indicated times, an aliquot is removed from each experimental and control reaction and mixed with an equal volume of ice-cold Stop Solution (methanol, containing internal standard propranolol). Stopped reactions are incubated for 10 minutes at −20° C. Samples are centrifuged to remove precipitated protein, and supernatants are analyzed by LC/MS/MS to quantitate remaining parent and the formation of metabolites. Data are reported as % remaining by dividing by the time zero concentration value.

[4] abbreviates: iv 1.5 mg/kg, 0.25 hr, individual rats, 1.5 mg/kg.
Where [5] appears, read: iv 1.5 mg/kg, 1 hr, individual rats, 1.5 mg/kg.
The mark [6] stands for this setting: iv 1.5 mg/kg, 2 hr, individual rats, 1.5 mg/kg.
The mark [7] stands for this setting: iv administration of 157 at 1.5 mg/kg.
[8] abbreviates: plasma, 157 1.5 mg/kg IV, individual rats, 1.5 mg/kg.
[9] abbreviates: plasma, 157 1.5 mg/kg PO, individual rats, 1.5 mg/kg.

As to `CN1CCN(C(=O)C2C(C(=O)OCC(Cl)(Cl)Cl)[C@H]3CC[C@@H]2O3)CC1` (some centres unmarked) [Compound 113], the “plasma concentration of 113” value in the data set “in vivo” (male, SD, po, 2 hr) was 2.15 ng/mL. This compound also displayed a concentration at 2 hr in “in vivo” (male, SD, po, plasma concentration of 113) of 2.15 ng/mL. Also, in “in vivo” (male, Sprague-Dawley, iv), the AUC(0-t) came out at 155 ng·h/mL and the Tmax amounted to 15 min. In the data set “in vivo” (male, Sprague-Dawley, po), the AUC(0-t) was 15.7 ng·h/mL, the “AUC(0-t) of 113” value was found to be 15.7 ng·h/mL, the peak level (Cmax) was 17.7 ng/mL and the “F of 113” value was 10.1%. Besides, the Tmax in “in vivo” (male, Sprague-Dawley, po) came out at 15 min. Further, the clinical symptoms entry in “in vivo” is listed as “No abnormal clinical symptom was observed”. For the same compound, in “in vivo” (iv), the “AUC(0-last) in brain” value was determined as 47.5 ng·h/g and the “AUC(0-last) in liver” value turned out to be 28.1 ng·h/g.

For the compound `CCCCCCCOC(=O)C1C2CCC(O2)C1C(=O)N1CCN(C)CC1` (centres unmarked) [Compound 157], in data set [1] (157 administered to rats), the “metabolism to endothal in vivo” value was “metablozied to endothal in vivo; also recorded: converted to endothal in the plasma”. The oral availability entry in data set [1] (157 at 1.5 mg/kg po to SD rats) was “poorly orally available”. In addition, the 157 plasma concentration in data set [1] (PO 1.5 mg/kg, 0.5 hr, individual rats, 1.5 mg/kg) is 5.92 ng/mL and 6.35 ng/mL; in data set [1] (PO 1.5 mg/kg, 0.5 hr, mean), 6.14 ng/mL; in data set [1] (PO 1.5 mg/kg, 1 hr, individual rats, 1.5 mg/kg) it was 1.48 ng/mL and 1.26 ng/mL; in data set [1] (PO 1.5 mg/kg, 1 hr, mean), 1.37 ng/mL; in data set [1] (PO 1.5 mg/kg, 2 hr, individual rats, 1.5 mg/kg), 0.303 ng/mL and 0.194 ng/mL; in data set [1] (PO 1.5 mg/kg, 2 hr, mean), 0.249 ng/mL. Also, the 157 plasma concentration is 116 ng/mL and 114 ng/mL in data set [1] (setting [4]); 115 ng/mL in data set [1] (iv 1.5 mg/kg, 0.25 hr, mean); 2.67 ng/mL and 3.57 ng/mL in data set [1] (setting [5]); 3.12 ng/mL in data set [1] (iv 1.5 mg/kg, 1 hr, mean); 0.491 ng/mL and 0.556 ng/mL in data set [1] (setting [6]); 0.524 ng/mL in data set [1] (iv 1.5 mg/kg, 2 hr, mean). The bioavailability in data set [1] (female, Sprague-Dawley, rat, in vivo, 157 1.5 mg/kg PO vs IV, mean, read-out: F (bioavailability, BA)) was 6.78%. In addition, the 157 brain concentration in data set [1] (iv 1.5 mg/kg, 0.25 hr, individual rats) is 60.0 ng/g; in data set [1] (iv 1.5 mg/kg, 0.25 hr, mean), 60.0 ng/g; in data set [1] (setting [5]), 1.99 ng/g and 2.80 ng/g; in data set [1] (iv 1.5 mg/kg, 1 hr, mean), 2.40 ng/g; in data set [1] (iv 1.5 mg/kg, 2 hr, individual rats), “BLQ”. Further, the 157 liver concentration in data set [1] (setting [4]) was 337 ng/g and 257 ng/g; in data set [1] (iv 1.5 mg/kg, 0.25 hr, mean) it was 297 ng/g; in data set [1] (setting [5]) it was 29.4 ng/g and 17.6 ng/g; in data set [1] (iv 1.5 mg/kg, 1 hr, mean), 23.5 ng/g; in data set [1] (setting [6]), 6.40 ng/g and 9.72 ng/g; in data set [1] (iv 1.5 mg/kg, 2 hr, mean) it was 8.06 ng/g. Besides, the 157 liver concentration entry in data set [1] (iv 1.5 mg/kg, 10 hr, individual rats) is reported as “BLQ”. Further, the AUClast in brain in data set [1] (setting [7]) was 24.6 ng·h/g. The same compound returned an AUClast in liver in data set [1] (setting [7]) of 152 ng·h/g. For the same compound, the AUC in data set [1] (setting [8]) turned out to be 47.3 ng·h/mL; in data set [1] (plasma, 157 1.5 mg/kg IV, mean), 47.2 ng·h/mL; in data set [1] (setting [9]), 3 ng·h/mL. Besides, the “AUC0-∞” value was determined as 47.3 ng·h/mL in data set [1] (setting [8]); 47.2 ng·h/mL in data set [1] (plasma, 157 1.5 mg/kg IV, mean); 3 ng·h/mL in data set [1] (setting [9]). Besides, the Cmax in data set [1] (setting [8]) is 116 ng/mL and 114 ng/mL.

With `CCOC(=O)OCOC(=O)[C@H]1[C@@H](C(=O)N2CCN(C)CC2)[C@@H]2CC[C@H]1O2` [LB-100 Carbonate], the “metabolite formation in whole blood half-life study” value in data set [2] (blood) is “formation of endothall and LB-100 were observed”. The “metabolism in whole blood metabolite study” value in data set [2] (monkey, human) was “metabolized to endothall and LB-100”.

Regarding `CN1CCN(C(=O)C2C3CCC(O3)C2C(=O)OCOC(=O)C(C)(C)C)CC1` (centres unmarked) [LB-100 POM Ester], the “metabolites observed in liver S9 stability study” value in data set [3] was “metabolites LB-100 and endothall were observed”. Also, the “metabolite formation in whole blood half-life study” value in data set [2] (cross species) is “formation of endothall and LB-100 were observed”. In data set [2] (monkey and human), the “metabolism in whole blood metabolite study” value was “metabolized to endothall and LB-100”.
